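Dose response: 5 concentrations. Exposure: 48 h. Format: 96-well plates. Endpoint: linear interpolation; highest concentration if not reached. GI50 is the concentration that inhibits growth by half.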 Activity calls are given as the source filed them. No stated cut-off is given here; in the data, active = GI50 up to about 1.1 µM and inactive = higher.
Assays:
Assay in all cases: inhibition of tumour cell growth, NCI panel, 48 h
[1] = tested on: 786-0
[2] = tested on: CAKI-1
[3] = tested on: DMS-273
[4] = tested on: EKVX
[5] = tested on: K562
[6] = tested on: LOX IMVI
[7] = tested on: NCI-H226
[8] = tested on: OVCAR-3
[9] = tested on: OVCAR-4
[10] = tested on: SF-268
[11] = tested on: SN12C
[12] = tested on: SNB-75
[13] = tested on: TK-10
[14] = tested on: UACC-257
[15] = tested on: UO-31
[16] = tested on: HOP-92
[17] = tested on: Hs-578T
[18] = tested on: MCF7
[19] = tested on: MDA-MB-435
[20] = tested on: T47D

Measured: GI50

COC(=O)C1=C(C[S+]([O-])c2ccc([N+](=O)[O-])cc2[N+](=O)[O-])C2C=CC1C2 (stereo not given)
inactive: [1] 27.1 µM | [2] 21.1 µM | [3] 20.2 µM | [4] 23.6 µM | [5] 19 µM | [6] 13.5 µM | [7] 31.4 µM | [8] 23.1 µM | [9] 25.7 µM | [10] 41 µM | [11] 23.7 µM | [12] 25.3 µM | [13] 23.4 µM | [14] 30.2 µM | [15] 22.4 µM

N#CC(C#N)=c1ccc(=C2NCC3CCCN23)cc1 (stereo not given)
inactive: [1] > 100 µM | [2] > 100 µM | [3] > 100 µM | [16] > 100 µM | [5] > 100 µM | [6] > 100 µM | [7] > 100 µM | [9] > 100 µM | [10] > 100 µM | [11] > 100 µM | [12] > 100 µM | [13] > 100 µM | [14] > 100 µM | [15] > 100 µM

Cc1ccc(C2=CC(=O)/C(=C\C(=O)c3ccc(Br)cc3)O2)c(C)c1
inactive: [1] 8.34 µM | [2] 3.04 µM | [4] 28.6 µM | [16] 6.4 µM | [17] 18.1 µM | [5] 3.4 µM | [6] 3.78 µM | [18] 5.33 µM | [19] 13.6 µM | [7] 10.9 µM | [8] 5.3 µM | [9] 9.42 µM | [10] 16.2 µM | [11] 13.2 µM | [12] 7.85 µM | [20] 8.79 µM | [13] 3.83 µM | [14] 16.9 µM | [15] 9.02 µM

CCOC(=O)c1nc2cc(C(F)(F)F)ccc2nc1Oc1ccc(C#N)cc1
inactive: [1] > 100 µM | [2] > 100 µM | [4] > 100 µM | [16] > 100 µM | [17] > 100 µM | [5] 70.6 µM | [6] 71.8 µM | [18] > 100 µM | [19] > 100 µM | [7] > 100 µM | [8] > 100 µM | [9] > 100 µM | [10] > 100 µM | [11] > 100 µM | [12] > 100 µM | [20] 55.7 µM | [13] > 100 µM | [14] > 100 µM | [15] > 100 µM

CC(=O)NC1=C(Nc2ccc(C)cc2)C(=O)c2ccccc2C1=O
inactive: [1] 15.4 µM | [2] 43.7 µM | [3] 16.5 µM | [4] > 75 µM | [5] 18.2 µM | [6] 9.53 µM | [7] 14.1 µM | [8] 16.6 µM | [9] 17.7 µM | [10] 26.9 µM | [11] 15.9 µM | [12] 11.6 µM | [13] > 75 µM | [14] 18 µM | [15] 25 µM

COC(=O)[C@@]12C3=NO[C@]1(C(=O)OC)C(O[Si](C)(C)C(C)(C)C)C1OC(C)(C)OC1[C@@H]2[C@@H](OCc1ccccc1)CC3 (stereo not given in full)
inactive: [1] > 100 µM | [3] 51.4 µM | [4] > 100 µM | [16] 4.4 µM | [5] 8.93 µM | [6] 83.9 µM | [7] > 100 µM | [8] 39.7 µM | [9] 23.9 µM | [11] > 100 µM | [12] 9.66 µM | [13] > 100 µM | [15] 8.85 µM

Reference: ChEMBL document CHEMBL1201862, “PubChem BioAssay data set” (2004)
